“Also recorded” adds a separate entry of the source.
Legend:
[1] = tested on: rabbit model of microshunt implant surgery; assay: Rabbit model of microshunt implant surgery, MMC high/low dose and low dose MMC with VPA; format: in vivo
Protocol: The rabbit model of microshunt implant surgery using the PRESERFLO® MicroShunt (Santen) was performed and treated under these conditions: • (a) 0.4 mg/ml MMC via sponge for 1 min; • (b) 0.1 mg/ml MMC via sponge for 1 min; and • (c) 0.1 mg/ml MMC via sponge for 1 min in combination with a total of 11 injections of 300 μg/ml VPA, immediately after surgery, and once daily for first 7 days, followed by injections on days 10, 14 and 21 post-surgery.
The rabbit eyes were then evaluated.

[2] = tested on: human Tenons conjunctival fibroblasts; assay: Type I collagen (Col1a1) expression in human Tenons conjunctival fibroblasts; format: cell-based; details: human Tenons conjunctival fibroblasts from three donors
Protocol: Likewise, for application in human, the dosage of VPA to be used was determined as in the rabbit model for effectiveness in reducing type I collagen. The effect of VPA on type I collagen expression in human Tenons conjunctival fibroblasts derived from three independent donors was investigated, and the results are as shown in FIG. 6B.

[3] = tested on: mouse model of conjunctival scarring; assay: Mouse model of conjunctival scarring, quantitative multiphoton imaging and histology of collagen; format: in vivo
From the text: The conjunctiva was dissected to reveal the sclera where an incision was made into the anterior chamber. The resulting fistula allowed aqueous humor to exit into and underneath the conjunctiva. The accumulated fluid underneath the sutured conjunctiva was observed as a conjunctival bleb. To determine whether VPA has the capacity to protect collagen architecture, quantitative multiphoton imaging as described in Xu S et al (J. Hepatol., 2014, 61(2):260-269) was used to measure collagen properties in the mouse model of conjunctival scarring treated with VPA. The onset of scarring, as indicated by peak production of collagen mRNA, was measured on day 7 post-surgery. The mature scar was measured on day 14 post-surgery when collagen mRNA production was subdued. To study the impact of VPA on the collagen architecture during the onset of scarring on day 7, mice were injected with 300 μg/ml VPA directly into the operated area immediately after surgery and on day 2. To determine the effect of VPA in the mature scar on day 14, mice were injected as above, with an additional injection on day 7. By this method, it could be readily observed in histologically-stained sections as well as multiphoton scans that collagen fibers in the VPA-treated eyes were thinner than those in the PBS-treated control eyes. Exemplary collagen fibers showing the thinning effect of VPA are indicated by the white arrowheads in FIG. 2.

[4] = tested on: rabbit model of microshunt implant surgery; assay: Rabbit model of microshunt implant surgery (PRESERFLO MicroShunt), VPA alone vs PBS; format: in vivo
Protocol: The rabbit model of microshunt implant surgery using the PRESERFLO® MicroShunt (Santen) was performed with a total of 11 injections of 300 μg/ml VPA, immediately after surgery, and once daily for first 7 days, followed by injections on days 10, 14 and 21 post-surgery. The rabbit eyes were evaluated by slit lamp photography (FIG. 7).
Confocal microscopy was used to correlate bleb appearance and function. It is known that significant positively correlating features include cyst size and vasculature density/tortuosity.

[5] = tested on: primary rabbit conjunctival fibroblasts; assay: Type I collagen (Col1a1) expression and cell growth in primary rabbit conjunctival fibroblasts; format: cell-based
Protocol: For application in the rabbit model of microshunt implant surgery (PRESERFLO® MicroShunt, Santen), the dosage of VPA to be used was determined using primary rabbit conjunctival fibroblasts for (1) effectiveness in reducing type I collagen, and (2) non-toxicity on cell growth, as shown in FIG. 6.

[6] = 300 μg/ml VPA, 28 days post-surgery, vs PBS
[7] = 300 μg/ml VPA, day 28 rabbit tissues
[8] = 300 μg/ml VPA, day 28 rabbit tissues, vs PBS controls

Question: What does the source list for CO[C@@]12[C@H](COC(N)=O)C3=C(C(=O)C(C)=C(N)C3=O)N1C[C@@H]1N[C@@H]12 [MMC, mitomycin C]?
Answer: mRNA expression of Col1a1 ([1]; 0.1 mg/ml MMC, day 28 rabbit tissues, vs 0.4 mg/ml MMC and 0.1 mg/ml MMC+VPA, n=5): significantly higher; bleb cysts (confocal microscopy) ([1]; rabbit, in vivo): large cysts; also recorded: smaller cysts; bleb morphology (slit lamp) ([1]; rabbit, in vivo): starkly avascular and cystic bleb; also recorded: less avascular and mildly cystic bleb; collagen fibers around implant tip (picrosirius red, polarised light) ([1]; rabbit, in vivo): thick collagen fibers encapsulating the implant

Question: CCCC(CCC)C(=O)O [VPA, valproic acid] was tested. Which “lowest concentration effective in significantly reducing Col1a1 expression without disrupting cell proliferation” value [2] did it give?
Answer: 300 µg/mL

Question: What about the “collagen fibers in histologically-stained sections and multiphoton scans” value ([3]; 300 μg/ml VPA injected into operated area, vs PBS-treated control eyes) of the same compound?
Answer: thinner

Question: What about the “number of collagen fibers per mm^2” value ([3]; 300 μg/ml VPA, both time points (days 7 and 14), vs PBS) of the same compound?
Answer: significantly reduced

Question: And the “Collagen Reticulation Index (CRI)” value ([3]; 300 μg/ml VPA, day 7, vs PBS treatment)?
Answer: significant reduction

Question: What about the “Collagen Reticulation Index (CRI)” value ([3]; 300 μg/ml VPA, day 14 mature scar) of the same compound?
Answer: lack of effect

Question: And the “collagen area ratio (CAR)” value ([3]; 300 μg/ml VPA, days 7 and 14 post-surgery, vs PBS)?
Answer: significantly reduced

Question: What about the “collagen thickness (quantitative multiphoton analyses)” value ([3]; 300 μg/ml VPA, operated conjunctival sections, vs PBS) of the same compound?
Answer: reduced

Question: What about the “collagen reticulation (measured as CRI and CARD)” value ([3]; 300 μg/ml VPA, post-operative conjunctiva) of the same compound?
Answer: not induced

Question: What about the “collagen fiber density (CFD)” value ([3]; 300 μg/ml VPA, vs PBS controls) of the same compound?
Answer: lack of significant difference

Question: What about the “bleb collagen fiber packing (confocal microscopy)” value ([4]; 300 μg/ml VPA, 28 days post-surgery, PBS tightly-packed) of the same compound?
Answer: loosely packed collagen fibers

Question: What about the “bleb vasculature (confocal microscopy)” value ([4]; 300 μg/ml VPA, 28 days post-surgery, PBS tortuous) of the same compound?
Answer: straight

Question: What about the “bleb collagen characteristics (histology)” value ([4]; 300 μg/ml VPA, 28 days post-surgery, compared to normal tissue) of the same compound?
Answer: thinner and similarly organized array of collagen fibers

Question: And the “COL1A1 and fibronectin fibers (immunofluorescent staining)” value [4, 6]?
Answer: thinner and more diffusely distributed fibers

Question: And the “bleb cysts (confocal microscopy)” value [4, 6]?
Answer: large cysts

Question: And the Smad6 expression [4, 7]?
Answer: significantly induced

Question: And the Vegfa expression [4, 7]?
Answer: significantly elevated

Question: And the collagen transcript expression [4, 8]?
Answer: significantly reduced

Question: What about the fibronectin transcript expression [4, 8] of the same compound?
Answer: significantly reduced

Question: And the “time a filtering bleb was maintained (slit lamp)” value ([4]; 11 injections of 300 μg/ml VPA, PBS bleb failed by day 14)?
Answer: at least 28 days

Question: What about the “collagen fibers around implant tip (picrosirius red, polarised light)” value ([1]; VPA 300 μg/mL with 0.1 mg/ml MMC (condition c)) of the same compound?
Answer: reduced the presence of the thick fibers encapsulating the implant

Question: What about the “lowest concentration effective in significantly reducing Col1a1 expression without disrupting cell proliferation” value [5] of the same compound?
Answer: 300 µg/mL

— patent US20230015595A1, “USE OF VALPROIC ACID FOR REDUCING POST-OPERATIVE SCARRING FOLLOWING A GLAUCOMA SURGERY” (SANTEN PHARMACEUTICAL CO., LTD., priority 2019, published 2023)
